Results: patent US20240246960A1 (adMare Therapeutics Society, priority 2021, published 2024)

Experiments:
[1] = molecular target: T1, DNA-PK (Homo sapiens, UniProt P78527); test: DNA-PK Assay for Biochemical Enzymatic Inhibition (ADP Glo Kinase assay)
T1 construct: purchased Invitrogen PR9107A
Protocol: A biochemical assay was performed to identify IC50 values against DNA-PK activity in a two-step reaction with a kinase reaction followed by ADP Glo™ Kinase assay Kit (Promega V9102).
Three-fold serial dilutions of compounds in DMSO were prepared in kinase assay buffer (50 mM HEPES pH 7.5, 20 mM MgCl2, 100 mM KCl, 50 μM DTT, 10 μg/ml calf thymus DNA, 0.01% Tween 20). Kinase assay buffer was used to prepare compound treatments to 0.02% DMSO (dimethyl sulphoxide) content. DMSO controls were prepared to produce a maximum and minimum luminescence signal for normalization. Substrate (Anaspec, AS-60210-5) and ATP (Promega V9102) and ATP mix was prepared by dilution in kinase assay buffer for 434.4 μM and 64.4 μM final assay concentrations, respectively. Compounds and control were added to 25 ng DNA-PK enzyme (Invitrogen, PR9107A) diluted in kinase buffer in assay plate (Corning 267459) and incubated for 15 minutes at room temperature prior to addition of substrate and ATP mix.
Throughout the assay, each time a reagent was added to the microplate, it was centrifuged for 1 minute at 1300 rcf. All reagents were added, and incubations carried out at room temperature. The reaction was then incubated for 60 minutes. ADP-ATP standards at 0, 4, 10, 40, 80, and 100% ADP (prepared as specified in the ADP Glo™ Kinase assay kit) were also added to the microplate at a volume equal to the total kinase reaction. The ADP Glo™ Kinase Assay kit was then used to quantify DNA-PK activity: following the 60-minute incubation, a 1:1 volume of ADP Glo reagent was added to all wells, then following a further 45-minute incubation, a 1:1 volume of Kinase Detection Reagent was added to all wells. After this two-step assay, plates were incubated in a Synergy-Neo2 plate reader for 30 minutes with gentle shaking, followed by endpoint luminescent read Luminescence data was normalized by subtracting the background signal and expressing all background-adjusted values as a percentage of the average maximum signal. The data was then expressed as percent inhibition by subtracting from 100% (i.e. maximum luminescent signal will be 0% inhibition) and the resulting data plotted against ten concentration points on a logarithmic scale, using GraphPad Prism. Non-linear regression analysis was performed on each concentration response curve and the log [inhibitor] vs response—variable slope (four parameters) equation was selected to generate IC50 values.

[2] = molecular target: T2, DNA-PK phosphorylation at Serine 2056 (Homo sapiens, UniProt P78527); test: Cellular Assay for Inhibition of DNA-PK Phosphorylation at Serine 2056 (FaDu cells, neocarzinostatin, sandwich ELISA); type: cell-based
T2 construct: host or cells: FaDu
Protocol: FaDu cells were purchased from ATCC and maintained in MEM alpha medium (Life Technologies, cat. no. 12561) supplemented with 10% fetal bovine serum, and 1% GlutaMAX at 37° C. supplemented with 5% CO2. 50,000 cells were seeded to each well of a 96-well cell culture plate in 50 μL of culture medium and incubated for 16-24 hours. Three-fold serially diluted compounds were prepared in DMSO. Culture media was used to prepare compound treatments to 0.3% DMSO (dimethyl sulphoxide) content. Compound treatments were added to the cells for 1 hour prior incubation, followed by the addition of neocarzinostatin in fresh culture medium to 1 μg/mL final concentration for an additional 2 hours incubation to induce DNA DSBs (double-strand breaks). DMSO controls were incubated with fresh culture medium alone for the additional two hours incubation. The cells were then lysed and frozen at −20° C. Cell lysates were thawed on wet ice and protein concentrations quantified by BCA Protein Assay (Thermo # 23225). Lysis buffer was used to normalize lysates by protein content and all lysates were then investigated by sandwich ELISA by means of DNA-PK-specific antibodies (Abcam ab44815: total DNA-PK; ab124918: phosphoserine-2056 DNA-PK) in sandwich ELISA format on the MSD S600MM platform (MesoScale Discovery). % inhibition was calculated for all data points: =1−(DATA_PT−AVERAGE(DMSO controls))/(AVERAGE(NCS controls)−AVERAGE(DMSO controls)). Logarithm of the molar concentration of compound was plotted against percent inhibition to calculate IC50 values, with curve fit settings for data fit to log(inhibitor) vs. normalized response—Variable slope using curve fit software (GraphPad Prism).

With `O=C(N[C@H]1CC[C@@H](Oc2nc(N3CCOCC3)cc3ncccc23)CC1)c1cncnc1C(F)(F)F` [Compound 130, N-((1s,4s)-4-((7-morpholino-1,6-naphthyridin-5-yl)oxy)cyclohexyl)-4-(trifluoromethyl)pyrimidine-5-carboxamide] the IC50 ([1]; Table 1) was 10 to 150 nM.
`O=S(=O)(N[C@H]1CC[C@@H](Oc2nc(N3CCOCC3)cc3ncccc23)CC1)c1ccccc1` [Compound 147, N-((1s,4s)-4-((7-Morpholino-1,6-naphthyridin-5-yl)oxy)cyclohexyl)benzenesulfonamide] gave an IC50 ([1]; Table 1) of 10 to 150 nM.
With `c1ccc(CN[C@H]2CC[C@@H](Oc3nc(N4CCOCC4)cc4ncccc34)CC2)cc1` [Compound 155, (1s,4s)-N-benzyl-4-((7-morpholino-1,6-naphthyridin-5-yl)oxy)cyclohexan-1-amine] the IC50 ([1]; Table 1) was 10 to 150 nM and the IC50 ([2]; Table 1) was 10000 to 30000 nM.
`Cn1cc([C@H]2CC[C@@H](Oc3nc(N4CCOCC4)cc4ncc(O)cc34)CC2)cn1` [Compound 4b, 5-(((1r,4r)-4-(1-methyl-1H-pyrazol-4-yl)cyclohexyl)oxy)-7-morpholino-1,6-naphthyridin-3-ol] showed an IC50 ([1]; Table 1) of 10 to 150 nM.
`O=C([C@H]1CC[C@@H](Oc2nc(N3CCOCC3)cc3ncccc23)CC1)N1CCOCC1` [Compound 154a, morpholino((1S,4S)-4-((7-morpholino-1,6-naphthyridin-5-yl)oxy)cyclohexyl)methanone] showed an IC50 ([1]; Table 1) of 10 to 150 nM.
In the case of `CN(C)C(=O)c1cnc(N[C@H]2CC[C@@H](Oc3nc(N4CCOCC4)cc4ncc(NS(C)(=O)=O)cc34)CC2)nc1` [LFA030, 2-[[4-[[3-(Methanesulfonamido)-7-morpholino-1,6-naphthyridin-5-yl]oxy]cyclohexyl]amino]-N,N-dimethyl-pyrimidine-5-carboxamide], the IC50 ([1]; Table 2) is reported as under 0.5 nM and the IC50 ([2]; Table 2) is reported as 100 to 1000 nM.
For `CC(=O)Nc1cnc2cc(N3CCOCC3)nc(O[C@H]3CC[C@@H](n4ccnc4)CC3)c2c1` [Compound 162, N-(5-(((1s,4s)-4-(1H-imidazol-1-yl)cyclohexyl)oxy)-7-morpholino-1,6-naphthyridin-3-yl)acetamide], the IC50 ([1]; Table 1) was 10 to 150 nM.
In the case of `O=S(=O)(N[C@H]1CC[C@@H](Oc2nc(N3CCOCC3)cc3ncccc23)CC1)c1ccc(F)cc1` [Compound 148, 4-Fluoro-N-((1s,4s)-4-((7-morpholino-1,6-naphthyridin-5-yl)oxy)cyclohexyl)benzenesulfonamide], the IC50 ([1]; Table 1) is reported as 10 to 150 nM.
`COc1ccc(S(=O)(=O)N[C@H]2CC[C@@H](Oc3nc(N4CCOCC4)cc4ncccc34)CC2)cc1` [Compound 149, 4-Methoxy-N-((1s,4s)-4-((7-morpholino-1,6-naphthyridin-5-yl)oxy)cyclohexyl)benzenesulfonamide] gave an IC50 ([1]; Table 1) of 10 to 150 nM.
Work on `COc1cnc(N[C@H]2CC[C@@H](Oc3nc(N4CCOCC4)cc4ncc(Br)cc34)CC2)nc1` [Compound 18c, N-((1s,4s)-4-((3-Bromo-7-morpholino-1,6-naphthyridin-5-yl)oxy)cyclohexyl)-5-methoxypyrimidin-2-amine] yielded an IC50 ([1]; Table 1) of 10 to 150 nM.
In the case of `CN(c1cnc2cc(N3CCOCC3)nc(O[C@H]3CC[C@@H](N(C)c4ncccn4)CC3)c2c1)S(C)(=O)=O` [Compound 199, N-methyl-N-(5-(((1s,4s)-4-(methyl(pyrimidin-2-yl)amino)cyclohexyl)oxy)-7-morpholino-1,6-naphthyridin-3-yl)methanesulfonamide], the IC50 ([1]; Table 1) is reported as 10 to 150 nM.
For `FC(F)(F)c1ccnn1[C@H]1CC[C@@H](Oc2nc(N3CCOCC3)cc3ncccc23)CC1` [Compound 17d, 4-(5-(((1s,4s)-4-(5-(trifluoromethyl)-1H-pyrazol-1-yl)cyclohexyl)oxy)-1,6-naphthyridin-7-yl)morpholine], the IC50 ([1]; Table 1) was 1 to 10 nM and the IC50 ([2]; Table 1) was 100 to 1000 nM.
`CNC(=O)c1cnc(N[C@H]2CC[C@@H](Oc3nc(N4CCOCC4)cc4ncc(NS(C)(=O)=O)cc34)CC2)nc1` [LFA029, 2-[[4-[[3-(Methanesulfonamido)-7-morpholino-1,6-naphthyridin-5-yl]oxy]cyclohexyl]amino]-N-methyl-pyrimidine-5-carboxamide] gave an IC50 ([1]; Table 2) of under 0.5 nM and an IC50 ([2]; Table 2) of 100 to 1000 nM.
Compound `CS(=O)(=O)Nc1cnc2cc(N3CCOCC3)nc(O[C@H]3CC[C@@H](Nc4ncc(C(N)=O)cn4)CC3)c2c1` [LFA028, 2-[[4-[[3-(Methanesulfonamido)-7-morpholino-1,6-naphthyridin-5-yl]oxy]cyclohexyl]amino]pyrimidine-5-carboxamide] has an IC50 ([1]; Table 2) of 0.5 to 1 nM and an IC50 ([2]; Table 2) of 1000 to 10000 nM.
`CCOC(=O)N[C@H]1CC[C@@H](Oc2nc(N3CCOCC3)cc3ncccc23)CC1` [Compound 104, Ethyl ((1s,4s)-4-((7-morpholino-1,6-naphthyridin-5-yl)oxy)cyclohexyl)carbamate] was tested, and the IC50 ([1]; Table 1) was 10 to 150 nM.
For `Cn1cc([C@H]2CC[C@H](Oc3nc(N4CCOCC4)cc4ncc(Br)cc34)CC2)cn1` [Compound 3b, 4-(3-bromo-5-(((1r,4r)-4-(1-methyl-1H-pyrazol-4-yl)cyclohexyl)oxy)-1,6-naphthyridin-7-yl)morpholine], the IC50 ([1]; Table 1) was 10 to 150 nM.
With `Nc1cnc2cc(N3CCOCC3)nc(O[C@H]3CC[C@@H](Nc4ncccn4)CC3)c2c1` [LFA107, 7-morpholino-5-[4-(pyrimidin-2-ylamino)cyclohexoxy]-1,6-naphthyridin-3-amine] the IC50 ([1]; Table 2) was under 0.5 nM and the IC50 ([2]; Table 2) was under 100 nM.
With `CN1CCN(C(=O)[C@H]2CC[C@@H](Oc3nc(N4CCOCC4)cc4ncccc34)CC2)CC1` [Compound 154d, (4-methylpiperazin-1-yl)((1S,4S)-4-((7-morpholino-1,6-naphthyridin-5-yl)oxy)cyclohexyl)methanone] the IC50 ([1]; Table 1) was 10 to 150 nM.
Work on `FC(F)(F)c1ccn([C@H]2CC[C@@H](Oc3nc(N4CCOCC4)cc4ncccc34)CC2)n1` [Compound 17c, 4-(5-(((1s,4s)-4-(3-(trifluoromethyl)-1H-pyrazol-1-yl)cyclohexyl)oxy)-1,6-naphthyridin-7-yl)morpholine] yielded an IC50 ([1]; Table 1) of 10 to 150 nM.
Work on `Cc1ccnc(N[C@H]2CC[C@@H](Oc3nc(N4CCOCC4)cc4ncc(NS(C)(=O)=O)cc34)CC2)n1` [LFA1047] yielded an IC50 ([2]; Table 3) of under 100 nM.
`Cc1nccc(N[C@H]2CC[C@@H](Oc3nc(N4CCOCC4)cc4ncccc34)CC2)n1` [Compound 37, 2-methyl-N-((1s,4s)-4-((7-morpholino-1,6-naphthyridin-5-yl)oxy)cyclohexyl)pyrimidin-4-amine] showed an IC50 ([1]; Table 1) of under 0.5 nM and an IC50 ([2]; Table 1) of 100 to 1000 nM.
`CS(=O)(=O)Nc1cnc2cc(N3CCOCC3)nc(O[C@H]3CC[C@@H](Nc4nccc(C#N)n4)CC3)c2c1` [LFA1042, N-[5-[4-[(4-cyanopyrimidin-2-yl)amino]cyclohexoxy]-7-morpholino-1,6-naphthyridin-3-yl]methanesulfonamide;2,2,2-trifluoroacetic acid] was tested, and the IC50 ([2]; Table 3) was under 100 nM.
